Reference: the NIST ThermoML archive (doi:10.1021/je060475r)
Numbers after ± are expanded uncertainties.

Assay: xn = mol fraction of the nth substance listed
Settings: 101 kPa, Liquid

O=CN1CCOCC1 [N-formylmorpholine] + Cc1ccccc1
mass density (298.15 K, x2 = 0): 1146.06 ± 1.5 kg/m3
viscosity (298.15 K, x2 = 0): 7.955 ± 0.31 mPa·s
mass density (298.15 K, x2 = 0.0997): 1118.85 ± 1.3 kg/m3
viscosity (298.15 K, x2 = 0.0997): 6.045 ± 0.25 mPa·s
mass density (298.15 K, x2 = 0.1857): 1095.98 ± 1.1 kg/m3
viscosity (298.15 K, x2 = 0.1857): 4.343 ± 0.19 mPa·s
mass density (298.15 K, x2 = 0.2987): 1064.62 ± 0.94 kg/m3
viscosity (298.15 K, x2 = 0.2987): 3.106 ± 0.14 mPa·s
mass density (298.15 K, x2 = 0.3979): 1036.62 ± 0.76 kg/m3
viscosity (298.15 K, x2 = 0.3979): 2.334 ± 0.11 mPa·s
mass density (298.15 K, x2 = 0.4996): 1007.87 ± 0.57 kg/m3
viscosity (298.15 K, x2 = 0.4996): 1.769 ± 0.082 mPa·s
mass density (298.15 K, x2 = 0.5993): 979.41 ± 0.65 kg/m3
viscosity (298.15 K, x2 = 0.5993): 1.376 ± 0.065 mPa·s
mass density (298.15 K, x2 = 0.701): 949.94 ± 0.83 kg/m3
viscosity (298.15 K, x2 = 0.701): 1.064 ± 0.052 mPa·s
mass density (298.15 K, x2 = 0.8004): 920.72 ± 1 kg/m3
viscosity (298.15 K, x2 = 0.8004): 0.846 ± 0.043 mPa·s
mass density (298.15 K, x2 = 0.9): 891.62 ± 1.2 kg/m3
viscosity (298.15 K, x2 = 0.9): 0.681 ± 0.036 mPa·s
mass density (303.15 K, x2 = 0): 1141.7 ± 1.4 kg/m3
viscosity (303.15 K, x2 = 0): 6.877 ± 0.28 mPa·s
mass density (303.15 K, x2 = 0.0997): 1114.45 ± 1.3 kg/m3
viscosity (303.15 K, x2 = 0.0997): 5.223 ± 0.22 mPa·s
mass density (303.15 K, x2 = 0.1857): 1091.57 ± 1.1 kg/m3
viscosity (303.15 K, x2 = 0.1857): 3.824 ± 0.17 mPa·s
mass density (303.15 K, x2 = 0.2987): 1060.17 ± 0.91 kg/m3
viscosity (303.15 K, x2 = 0.2987): 2.771 ± 0.12 mPa·s
mass density (303.15 K, x2 = 0.3979): 1032.11 ± 0.73 kg/m3
viscosity (303.15 K, x2 = 0.3979): 2.116 ± 0.097 mPa·s
mass density (303.15 K, x2 = 0.4996): 1003.25 ± 0.54 kg/m3
viscosity (303.15 K, x2 = 0.4996): 1.614 ± 0.076 mPa·s
mass density (303.15 K, x2 = 0.5993): 974.76 ± 0.68 kg/m3
viscosity (303.15 K, x2 = 0.5993): 1.261 ± 0.061 mPa·s
mass density (303.15 K, x2 = 0.701): 945.23 ± 0.86 kg/m3
viscosity (303.15 K, x2 = 0.701): 0.994 ± 0.049 mPa·s
mass density (303.15 K, x2 = 0.8004): 916.11 ± 1 kg/m3
viscosity (303.15 K, x2 = 0.8004): 0.79 ± 0.04 mPa·s
mass density (303.15 K, x2 = 0.9): 887 ± 1.2 kg/m3
viscosity (303.15 K, x2 = 0.9): 0.636 ± 0.034 mPa·s
mass density (313.15 K, x2 = 0): 1132.96 ± 1.4 kg/m3
viscosity (313.15 K, x2 = 0): 5.214 ± 0.22 mPa·s
mass density (313.15 K, x2 = 0.0997): 1105.62 ± 1.2 kg/m3
viscosity (313.15 K, x2 = 0.0997): 4.037 ± 0.18 mPa·s
mass density (313.15 K, x2 = 0.1857): 1082.68 ± 1.1 kg/m3
viscosity (313.15 K, x2 = 0.1857): 3.035 ± 0.14 mPa·s
mass density (313.15 K, x2 = 0.2987): 1051.22 ± 0.85 kg/m3
viscosity (313.15 K, x2 = 0.2987): 2.248 ± 0.1 mPa·s
mass density (313.15 K, x2 = 0.3979): 1022.87 ± 0.67 kg/m3
viscosity (313.15 K, x2 = 0.3979): 1.754 ± 0.082 mPa·s
mass density (313.15 K, x2 = 0.4996): 993.89 ± 0.56 kg/m3
viscosity (313.15 K, x2 = 0.4996): 1.323 ± 0.063 mPa·s
mass density (313.15 K, x2 = 0.5993): 965.36 ± 0.73 kg/m3
viscosity (313.15 K, x2 = 0.5993): 1.076 ± 0.053 mPa·s
mass density (313.15 K, x2 = 0.701): 935.9 ± 0.91 kg/m3
viscosity (313.15 K, x2 = 0.701): 0.854 ± 0.043 mPa·s
mass density (313.15 K, x2 = 0.8004): 906.8 ± 1.1 kg/m3
viscosity (313.15 K, x2 = 0.8004): 0.69 ± 0.036 mPa·s
mass density (313.15 K, x2 = 0.9): 877.53 ± 1.3 kg/m3
viscosity (313.15 K, x2 = 0.9): 0.569 ± 0.031 mPa·s
mass density (323.15 K, x2 = 0): 1124.33 ± 1.3 kg/m3
viscosity (323.15 K, x2 = 0): 4.08 ± 0.18 mPa·s
mass density (323.15 K, x2 = 0.0997): 1096.88 ± 1.2 kg/m3
viscosity (323.15 K, x2 = 0.0997): 3.219 ± 0.14 mPa·s
mass density (323.15 K, x2 = 0.1857): 1073.89 ± 1 kg/m3
viscosity (323.15 K, x2 = 0.1857): 2.475 ± 0.11 mPa·s
mass density (323.15 K, x2 = 0.2987): 1042.33 ± 0.8 kg/m3
viscosity (323.15 K, x2 = 0.2987): 1.864 ± 0.086 mPa·s
mass density (323.15 K, x2 = 0.3979): 1013.75 ± 0.61 kg/m3
viscosity (323.15 K, x2 = 0.3979): 1.471 ± 0.07 mPa·s
mass density (323.15 K, x2 = 0.4996): 984.5 ± 0.62 kg/m3
viscosity (323.15 K, x2 = 0.4996): 1.13 ± 0.055 mPa·s
mass density (323.15 K, x2 = 0.5993): 955.91 ± 0.79 kg/m3
viscosity (323.15 K, x2 = 0.5993): 0.929 ± 0.046 mPa·s
mass density (323.15 K, x2 = 0.701): 926.58 ± 0.97 kg/m3
viscosity (323.15 K, x2 = 0.701): 0.747 ± 0.038 mPa·s
mass density (323.15 K, x2 = 0.8004): 897.51 ± 1.1 kg/m3
viscosity (323.15 K, x2 = 0.8004): 0.613 ± 0.033 mPa·s
mass density (323.15 K, x2 = 0.9): 868.21 ± 1.3 kg/m3
viscosity (323.15 K, x2 = 0.9): 0.508 ± 0.028 mPa·s
mass density (333.15 K, x2 = 0): 1115.63 ± 1.3 kg/m3
viscosity (333.15 K, x2 = 0): 3.284 ± 0.15 mPa·s
mass density (333.15 K, x2 = 0.0997): 1088.08 ± 1.1 kg/m3
viscosity (333.15 K, x2 = 0.0997): 2.622 ± 0.12 mPa·s
mass density (333.15 K, x2 = 0.1857): 1065 ± 0.95 kg/m3
viscosity (333.15 K, x2 = 0.1857): 2.057 ± 0.094 mPa·s
mass density (333.15 K, x2 = 0.2987): 1033.38 ± 0.74 kg/m3
viscosity (333.15 K, x2 = 0.2987): 1.576 ± 0.074 mPa·s
mass density (333.15 K, x2 = 0.3979): 1004.52 ± 0.56 kg/m3
viscosity (333.15 K, x2 = 0.3979): 1.259 ± 0.06 mPa·s
mass density (333.15 K, x2 = 0.4996): 975.06 ± 0.68 kg/m3
viscosity (333.15 K, x2 = 0.4996): 0.979 ± 0.048 mPa·s
mass density (333.15 K, x2 = 0.5993): 946.52 ± 0.85 kg/m3
viscosity (333.15 K, x2 = 0.5993): 0.813 ± 0.041 mPa·s
mass density (333.15 K, x2 = 0.701): 917.23 ± 1 kg/m3
viscosity (333.15 K, x2 = 0.701): 0.66 ± 0.035 mPa·s
mass density (333.15 K, x2 = 0.8004): 888.11 ± 1.2 kg/m3
viscosity (333.15 K, x2 = 0.8004): 0.544 ± 0.03 mPa·s
mass density (333.15 K, x2 = 0.9): 858.77 ± 1.4 kg/m3
viscosity (333.15 K, x2 = 0.9): 0.453 ± 0.026 mPa·s
mass density (343.15 K, x2 = 0): 1107.96 ± 1.2 kg/m3
viscosity (343.15 K, x2 = 0): 2.707 ± 0.12 mPa·s
mass density (343.15 K, x2 = 0.0997): 1080.32 ± 1.1 kg/m3
viscosity (343.15 K, x2 = 0.0997): 2.189 ± 0.1 mPa·s
mass density (343.15 K, x2 = 0.1857): 1057.15 ± 0.9 kg/m3
viscosity (343.15 K, x2 = 0.1857): 1.748 ± 0.081 mPa·s
mass density (343.15 K, x2 = 0.2987): 1025.32 ± 0.69 kg/m3
viscosity (343.15 K, x2 = 0.2987): 1.353 ± 0.064 mPa·s
mass density (343.15 K, x2 = 0.3979): 996.41 ± 0.55 kg/m3
viscosity (343.15 K, x2 = 0.3979): 1.096 ± 0.053 mPa·s
mass density (343.15 K, x2 = 0.4996): 966.84 ± 0.73 kg/m3
viscosity (343.15 K, x2 = 0.4996): 0.888 ± 0.045 mPa·s
mass density (343.15 K, x2 = 0.5993): 938.07 ± 0.9 kg/m3
viscosity (343.15 K, x2 = 0.5993): 0.72 ± 0.037 mPa·s
mass density (343.15 K, x2 = 0.701): 908.7 ± 1.1 kg/m3
viscosity (343.15 K, x2 = 0.701): 0.59 ± 0.032 mPa·s
mass density (343.15 K, x2 = 0.8004): 879.44 ± 1.3 kg/m3
viscosity (343.15 K, x2 = 0.8004): 0.49 ± 0.027 mPa·s
mass density (343.15 K, x2 = 0.9): 850.05 ± 1.4 kg/m3
viscosity (343.15 K, x2 = 0.9): 0.412 ± 0.024 mPa·s
mass density (353.15 K, x2 = 0): 1098.76 ± 1.2 kg/m3
viscosity (353.15 K, x2 = 0): 2.274 ± 0.1 mPa·s
mass density (353.15 K, x2 = 0.0997): 1070.98 ± 0.99 kg/m3
viscosity (353.15 K, x2 = 0.0997): 1.804 ± 0.084 mPa·s
mass density (353.15 K, x2 = 0.1857): 1047.73 ± 0.84 kg/m3
viscosity (353.15 K, x2 = 0.1857): 1.505 ± 0.071 mPa·s
mass density (353.15 K, x2 = 0.2987): 1015.94 ± 0.64 kg/m3
viscosity (353.15 K, x2 = 0.2987): 1.179 ± 0.057 mPa·s
mass density (353.15 K, x2 = 0.3979): 986.63 ± 0.61 kg/m3
viscosity (353.15 K, x2 = 0.3979): 0.96 ± 0.048 mPa·s
mass density (353.15 K, x2 = 0.4996): 957.13 ± 0.79 kg/m3
viscosity (353.15 K, x2 = 0.4996): 0.791 ± 0.04 mPa·s
mass density (353.15 K, x2 = 0.5993): 928.16 ± 0.97 kg/m3
viscosity (353.15 K, x2 = 0.5993): 0.644 ± 0.034 mPa·s
mass density (353.15 K, x2 = 0.701): 898.81 ± 1.1 kg/m3
viscosity (353.15 K, x2 = 0.701): 0.531 ± 0.029 mPa·s
mass density (353.15 K, x2 = 0.8004): 869.48 ± 1.3 kg/m3
viscosity (353.15 K, x2 = 0.8004): 0.444 ± 0.025 mPa·s
mass density (353.15 K, x2 = 0.9): 839.94 ± 1.5 kg/m3
viscosity (353.15 K, x2 = 0.9): 0.377 ± 0.023 mPa·s
